{"source": "patent US10100313B2", "about": "“Use of Mcoln-1 modulators to regulate cell migration” (INSTITUT CURIE, priority 2014, dated 2018)", "assay_type_in_all_cases": "cell-based, mouse", "key": {"[1]": {"test_system": "dendritic cells", "assay": "Migration assay in micro-channels", "method": "(§1) Mouse bone-marrow cells were cultured during 10-12 days in medium supplemented with fetal calf serum and granulocyte-macrophage colony stimulating factor-containing supernatant obtained from transfected J558 cells, as previously described (Faure-Andre et al, 2008, Science, 322, 1705-10). For migration or mapping assays (see below), cells at day 10-12 were activated with 100 ng/ml of LPS (mature cells, LPS DCs), for 30 min, then rinsed 3 times with complete media and put into the channels. Counterpart immature cells for these experiments are treated in the same condition, but in absence of LPS.\nMicro-channels were prepared as previously described (Faure-Andre et al, 2008, Science, 322, 1705-10; Heuze et al., 2011, Methods Mol Biol., 769, 415-434). They were incubated with 10 μg/ml fibronectin alone for 1 h and washed with PBS.\nFor migration assay, cells were loaded in micro-channels (section 5×5 μm) and imaged at least for 16 hours on an epifluorescence video-microscope Nikon TiE microscope equipped with a cooled CCD camera (HQ2, Photometrics) with a 10× objective, one transmission phase image taken every 2 minutes. Kymograph extraction and instantaneous velocity analysis were performed using a homemade program as described previously (Faure-Andre et al, 2008, Science, 322, 1705-10)."}, "[2]": {"test_system": "dendritic cells", "assay": "Flow cytometry analysis of CD86 levels (DC activation/maturation)", "settings": "immature and LPS-matured cells, 5 or 10 μM", "method": "The following reagents were used for imaging experiments: WGA AlexaFluor-647 and Hoechst (both from Life Technologies). Micro-channels were coated with Fibronectin (Sigma). Cell activation was performed with LPS (Sigma). For flow cytometry the following antibodies were used: anti-CD86 (GL1 clone, 553692) and a Rat IgG2a,κ isotype control (553930) from BD Biosciences.\nas §1\nCells were resuspended in staining buffer (PBS BSA 2%) and stained 30 min at 4° C. with the indicated antibodies. Cells were then washed 3 times and resuspended in staining buffer. All Facs experiments were carried on an Accuri flow cytometer (BD Biosciences)."}, "[3]": {"test_system": "dendritic cells", "assay": "Mapping assay of polymerized actin in migrating Lifeact dendritic cells", "settings": "immature DCs", "method": "as §1\nLifeact dendritic cells (nucleofected or not) were incubated for 30 min in […] Hoechst-containing medium, washed 3 times and 10^5 cells per well were loaded and incubated from 4 h to overnight to allow their entry into micro-channels (section was 8×5 μm). After entry, cells were imaged at least for 16 hours on an epifluorescence video-microscope Nikon TiE microscope equipped with a cooled CCD camera (HQ2, Photometrics) with a 20× objective. Images were acquired every 3 minutes. […] Furthermore for each cell, spatial coordinates of the nuclei were measured and ratio between the mean actin density at the front and at the back of the nucleus was computed. […]"}}, "note": "Entries after “also recorded” stand apart in the source; their conditions may differ.", "data": [{"substance": "MLSA1", "values": [{"measurement": "cell velocity", "setting": "[1]; immature DCs", "result": "increases"}, {"measurement": "persistence", "setting": "[1]; immature DCs", "result": "increases"}, {"measurement": "cell velocity", "setting": "[1]; mature cells (LPS DCs)", "result": "does not further increase"}, {"measurement": "persistence", "setting": "[1]; mature cells (LPS DCs)", "result": "does not further increase"}, {"measurement": "CD86 levels (cell activation / LPS-induced maturation)", "setting": "[2]", "result": "No effect; also recorded: does not activate immature cells, nor prevent the LPS-induced maturation"}, {"measurement": "actin polymerization at the cell center/cell rear", "setting": "[3]", "result": "enriched at their rear; also recorded: partially induces"}, {"measurement": "fraction of time spent by DCs with actin at their front", "setting": "[3]; compared to immature control DCs", "result": "decreased"}]}]}
